From ChEMBL document CHEMBL1157024, “First synthesis and biological evaluation of novel spin-labeled derivatives of deoxypodophyllotoxin” (Eur J Med Chem, 2010)

Columns and labels:
RPMI-8226 = experiment: Cytotoxicity against human RPMI8226 cells after 72 hrs by CCK8 method; format: functional, cell-based
Kidney = experiment: Antioxidant activity in Sprague-Dawley rat kidney assessed as lipid peroxidation by thiobarbituric acid assay; format: functional, tissue-based
Liver = experiment: Antioxidant activity in Sprague-Dawley rat liver assessed as lipid peroxidation by thiobarbituric acid assay; format: functional, tissue-based
A549 = experiment: Cytotoxicity against human A549 cells after 48 hrs by MTT assay; format: functional, cell-based
HL-60 = experiment: Cytotoxicity against human HL60 cells after 72 hrs by CCK8 method; format: functional, cell-based
[1] = Rattus norvegicus, Sprague-Dawley, Kidney
[2] = Rattus norvegicus, Sprague-Dawley, Liver

| Structure (SMILES) | IC50 (RPMI-8226; rpmi-8226) [nM] | IC50 (Kidney) [nM] | IC50 (Liver) [nM] | IC50 (A549; a549) [nM] | IC50 (HL-60; hl-60) [nM] | IC50 (RPMI-8226; Homo sapiens, RPMI-8226, 72 h) [nM] | IC50 (Kidney; [1]) [nM] | IC50 (Liver; [2]) [nM] | IC50 (A549; Homo sapiens, A549, 48 h) [nM] | IC50 (HL-60; Homo sapiens, HL-60, 72 h) [nM] |
| --- | --- | --- | --- | --- | --- | --- | --- | --- | --- | --- |
| COc1cc([C@@H]2c3cc4c(cc3C[C@H]3COC(=O)[C@@H]32)OCO4)cc(OC)c1OC(=O)[C@H](C)NC(=O)OC1CC(C)(C)N([O])C(C)(C)C1 | 44 | 15800 | 15300 | 670 | 12 | – | – | – | – | – |
| COc1cc([C@@H]2c3cc4c(cc3C[C@H]3COC(=O)[C@@H]32)OCO4)cc(OC)c1OC(=O)[C@H](CC(C)C)NC(=O)OC1CC(C)(C)N([O])C(C)(C)C1 | 110 | 12100 | 18000 | 770 | 85 | – | – | – | – | – |
| COc1cc([C@@H]2c3cc4c(cc3C[C@H]3COC(=O)[C@@H]32)OCO4)cc(OC)c1O [4'-DEMETHYLDEOXYPODOPHYLLOTOXIN] | – | – | – | – | – | 230 | 23000 | 33800 | 800 | 110 |
| COc1cc([C@@H]2c3cc4c(cc3C[C@H]3COC(=O)[C@@H]32)OCO4)cc(OC)c1OC(=O)[C@@H]1CCCN1C(=O)OC1CC(C)(C)N([O])C(C)(C)C1 | 130 | 14600 | 9700 | 600 | 140 | – | – | – | – | – |
| COc1cc([C@@H]2c3cc4c(cc3C[C@H]3COC(=O)[C@@H]32)OCO4)cc(OC)c1OC(=O)[C@H](Cc1ccc(O)cc1)NC(=O)OC1CC(C)(C)N([O])C(C)(C)C1 | 43 | 16300 | 15200 | 270 | 32 | – | – | – | – | – |
| COc1cc([C@@H]2c3cc4c(cc3C[C@H]3COC(=O)[C@@H]32)OCO4)cc(OC)c1OC(=O)[C@H](Cc1ccccc1)NC(=O)OC1CC(C)(C)N([O])C(C)(C)C1 | 31 | 15000 | 10400 | 500 | 18 | – | – | – | – | – |
| CC[C@H](C)[C@H](NC(=O)OC1CC(C)(C)N([O])C(C)(C)C1)C(=O)Oc1c(OC)cc([C@@H]2c3cc4c(cc3C[C@H]3COC(=O)[C@@H]32)OCO4)cc1OC | 58 | 6890 | 13200 | 830 | 36 | – | – | – | – | – |
| COc1cc([C@@H]2c3cc4c(cc3[C@@H](O[C@@H]3O[C@@H]5CO[C@@H](C)O[C@H]5[C@H](O)[C@H]3O)[C@H]3COC(=O)[C@H]23)OCO4)cc(OC)c1O [ETOPOSIDE] | – | – | – | – | – | 700 | 64600 | 46400 | 830 | 180 |
| COc1cc([C@@H]2c3cc4c(cc3C[C@H]3COC(=O)[C@@H]32)OCO4)cc(OC)c1OC(=O)CNC(=O)OC1CC(C)(C)N([O])C(C)(C)C1 | 73 | 13700 | 14400 | 620 | 8.7 | – | – | – | – | – |
| COc1cc([C@@H]2c3cc4c(cc3C[C@H]3COC(=O)[C@@H]32)OCO4)cc(OC)c1OC(=O)[C@@H](NC(=O)OC1CC(C)(C)N([O])C(C)(C)C1)C(C)C | 160 | 20300 | 19300 | 550 | 24 | – | – | – | – | – |
